The subject of one assay is 2-year-old aged mice. The experiment in a line: Senescence biomarkers in tissues of aged mice. Type of assay: in vivo. The settings on record: aged liver, muscle and skin tissues; ip 20 mg/kg X and/or 4 mg/kg Y daily for 30 days; vs DMSO vehicle; P<0.01. As to the method:
To test if the drugs X and Y may reduce senescence in the tissues of aged mice, we intraperitoneally injected 2-year-old aged mice (n=10/group) with 20 mg/kg of X, or 4 mg/kg of Y, or both 20 mg/kg of X and 4 mg/kg of Y, relative to the DMSO vehicle control, on a daily basis for 30 days. Staining of liver, muscle and skin tissue sections for SA-β-gal activity was performed using the Senescence β-Galactosidase Staining Kit (Cell Signaling Technology) according to manufacturer's protocols. Protein expression of p16INK4A and H3K9me3 were evaluated by densitometric quantification of Westem blots of the liver, muscle and skin tissue samples.

In assay [1] the test system is primary human skeletal muscle cells. The experiment in a line: Metabolism and gene pathway profiling of muscle cells. Type of assay: cell-based. The settings on record: single agent: X alone 100 mg/L or Y alone 2 mg/L. The protocol:
Calorie restriction is known to ameliorate the effects of aging, by altering cellular bioenergetic stress and promoting mitochondrial activity, the unfolded protein response (UPR), the secretion of beneficial cytokines, and an increase in stem cell regeneration. To test how the drug combination X and Y mimics the effects of calorie restriction (CR), we profiled the metabolism of primary human skeletal muscle cells at passage 15 treated with X (100 mg/L) and Y (2 mg/L), compared to X alone (100 mg/L) or Y alone (2 mg/L).

Assay [2] concerns 1 year-old aged diabetic mice. Kind of assay: Tissue regeneration in 1 year-old aged diabetic mice, oral gavage. It counts as in vivo. The settings on record: single agent: X alone 20 mg/kg or Y alone 4 mg/kg, daily oral gavage, 6 weeks.
Assay [3] has as its system 1 year-old aged mice treated with intratracheal bleomycin. Kind of assay: Bleomycin lung fibrosis in aged mice (COPD/IPF model). Conditions: daily oral gavage over 3 weeks; intratracheal bleomycin 3 mg/kg. Type of assay: in vivo. The protocol:
Daily oral gavage of the drug combination X and Y, relative to X alone or Y alone or the vehicle over 3 weeks, led to decreases in aging-associated lung fibrosis in 1 year-old aged mice treated with intratracheal bleomycin (3 mg/kg in 50 ul phosphate buffered saline or PBS) to model chronic obstructive pulmonary disease (COPD) and idiopathic pulmonary fibrosis (IPF).

Assay [4] relates to adult female rats (PCOS model). Kind of assay: Estrus cycles in DHEA/diet PCOS rat model. It counts as in vivo. The settings on record: daily oral gavage over 6 weeks; DHEA 60 mg/kg sc and high fat-high sugar-high cholesterol diet. As to the method: Daily oral gavage of the drug combination X and Y, relative to X alone or Y alone or the vehicle over 6 weeks, led to restoration of estrus cycles in adult female rats treated with subcutaneous dehydroepiandrosterone (DHEA; 60 mg/kg body weight) and fed with a high fat-high sugar-high cholesterol diet ad libitum to model premature ovarian aging in polycystic ovary syndrome (PCOS).

In the case of `CC(=O)Oc1ccccc1C(=O)O` [X, 2-acetoxybenzoic acid], the “SA-β-gal activity staining (senescence biomarker)” value with 2-year-old aged mice is “but not X alone or Y alone”. The “beneficial anti-aging effects seen with X and Y (ATP, acetyl-CoA, acetylation, Pink1, mitochondrial protein and DNA, UPR, ROS, cytokine and stem cell pathways)” value in assay [1] is on record as “None of these beneficial anti-aging effects were observed”. In assay [2], the “beneficial anti-aging effects seen with X and Y (liver, β islet, hair, wound, muscle regeneration, body mass)” value is “None of these beneficial anti-aging effects were observed”. Besides, the “lung fibrosis (% fibrotic area, Masson trichrome staining, ImageJ)” value in assay [3] is “None of these beneficial anti-aging effects were observed”. In assay [4], the “estrus cycles (vaginal smear analysis)” value is “all of the rats were frozen in either the estrus or proestrus stages”.

Take `COc1ccc(CN2CCNCC2)c(OC)c1OC` [Y, 1-[(2,3,4-trimethoxyphenyl)methyl]piperazine]: the “SA-β-gal activity staining (senescence biomarker)” value in the assay with 2-year-old aged mice is given as “but not X alone or Y alone”. Besides, the “beneficial anti-aging effects seen with X and Y (ATP, acetyl-CoA, acetylation, Pink1, mitochondrial protein and DNA, UPR, ROS, cytokine and stem cell pathways)” value in assay [1] is reported as “None of these beneficial anti-aging effects were observed”. In addition, the “beneficial anti-aging effects seen with X and Y (liver, β islet, hair, wound, muscle regeneration, body mass)” value in assay [2] was “None of these beneficial anti-aging effects were observed”. The “lung fibrosis (% fibrotic area, Masson trichrome staining, ImageJ)” value in assay [3] is “None of these beneficial anti-aging effects were observed”. For the same molecule, the “estrus cycles (vaginal smear analysis)” value in assay [4] is “all of the rats were frozen in either the estrus or proestrus stages”.
